Experiments:
[1] = molecular target: human M4 receptor (Homo sapiens (Human), UniProt P08173); test: In vitro M4 functional assay (intracellular calcium, FLiPR Tetra); assay type: cell-based; details: for Emax: relative efficacy to an EC100 concentration of acetylcholine, read-out: M4 % RE
Protocol: (§1) In Vitro M4 &M2 Functional Assay
(§2) The functional activity of compounds at the M4 and M2 receptors was determined by measuring changes in the level of intracellular calcium ions caused by signalling cascades mediated by the receptor. Intracellular Calcium levels were measured using a calcium sensitive fluorescent dye, calcium 5 (Molecular Devices) The changes in fluorescence were monitored by a fluorescent imager, FLiPR Tetra (Molecular devices). Increases in intracellular calcium were readily detected upon activation of both receptors by the muscarinic receptor agonist Acetylcholine.
(§3) CHOK1 cells stably expressing human M4 or M2 receptor and co-expressing the accessory g-protein Gα16 were routinely grown as monolayers in Hams-F12 medium (Invitrogen) supplemented with 10% foetal bovine serum (FBS) (Hyclone), 500 ug/mL Geneticin and 250 ug/mL zeocin (both invitrogen) in 5% CO2 at 37° C. Once confluent is cells cryopreserved by freezing at −186° C. in freezing solution (90% FBS 10% DMSO) (Sigma-Aldrich Co.). Twenty-four hours prior to testing cells resuscitated and freezing media removed via centrifugation, cells then seeded in a black walled clear bottom 384 well plates (Corning) at a density of 15,000 cells/well in Hams F12 media supplemented with 10% FBS. On the day of assay, growth media was removed and replaced with 63 μl of Calcium 5 dye solution (Molecular Devices) in assay buffer (HBSS, 20 mM HEPES, 0.1% BSA, 1 mM Probenecid pH7.4 (Sigma-Aldrich Co.)) per well (each vial of Calcium 5 resuspended in 27 mL of assay buffer). Cells were then incubated for 45 minutes at 37° C., 5% CO2. Compound was serially diluted in DMSO (log/half log) before being diluted 1:20 with assay buffer. 7 μl of compound diluted in assay buffer was then added to cells on FLiPR tetra and fluorescence intensity measured for 5 minutes. EC50 values for compounds were determined from ten point half log scale dose-response studies and represent the concentration of compound required to […] maximal response. Curves were generated using the average of duplicate wells for each data point and analyzed using non-linear regression of four parameter dose response. Percentage Relative efficacy (RE) to an EC100 concentration of acetylcholine was reported for all compounds. The results are set out in Table 3 below in which the term “No Response” means that there was no significant response of calcium flux in the assay indicative of agonism.

[2] = molecular target: human M2 receptor (Homo sapiens (Human), UniProt P08172); test: In vitro M2 functional assay (intracellular calcium, FLiPR Tetra); assay type: cell-based; details: for M2 EC50 / EC50: CHOK1 cells stably expressing human M2 receptor and Gα16, calcium flux, No Response = no significant response of calcium flux indicative of agonism; for M2 % RE: relative efficacy to an EC100 concentration of acetylcholine
Protocol: as §1, §2, §3

[3] = CHOK1 cells stably expressing human M4 receptor and Gα16, calcium flux

Chain of human M4 receptor (P08173 whole entry): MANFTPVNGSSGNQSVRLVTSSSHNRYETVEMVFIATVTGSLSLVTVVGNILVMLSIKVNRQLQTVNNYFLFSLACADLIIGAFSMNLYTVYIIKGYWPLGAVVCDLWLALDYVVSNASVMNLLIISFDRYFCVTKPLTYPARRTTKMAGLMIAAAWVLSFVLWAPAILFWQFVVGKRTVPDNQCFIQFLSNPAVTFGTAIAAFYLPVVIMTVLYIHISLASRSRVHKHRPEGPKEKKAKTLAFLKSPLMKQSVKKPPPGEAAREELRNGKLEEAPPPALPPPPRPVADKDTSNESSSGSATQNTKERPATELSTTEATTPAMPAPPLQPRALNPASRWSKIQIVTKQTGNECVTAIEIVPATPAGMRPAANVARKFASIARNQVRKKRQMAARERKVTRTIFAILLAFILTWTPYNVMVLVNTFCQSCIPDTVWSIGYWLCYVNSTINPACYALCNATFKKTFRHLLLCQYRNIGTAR
Chain of human M2 receptor (P08172 whole entry): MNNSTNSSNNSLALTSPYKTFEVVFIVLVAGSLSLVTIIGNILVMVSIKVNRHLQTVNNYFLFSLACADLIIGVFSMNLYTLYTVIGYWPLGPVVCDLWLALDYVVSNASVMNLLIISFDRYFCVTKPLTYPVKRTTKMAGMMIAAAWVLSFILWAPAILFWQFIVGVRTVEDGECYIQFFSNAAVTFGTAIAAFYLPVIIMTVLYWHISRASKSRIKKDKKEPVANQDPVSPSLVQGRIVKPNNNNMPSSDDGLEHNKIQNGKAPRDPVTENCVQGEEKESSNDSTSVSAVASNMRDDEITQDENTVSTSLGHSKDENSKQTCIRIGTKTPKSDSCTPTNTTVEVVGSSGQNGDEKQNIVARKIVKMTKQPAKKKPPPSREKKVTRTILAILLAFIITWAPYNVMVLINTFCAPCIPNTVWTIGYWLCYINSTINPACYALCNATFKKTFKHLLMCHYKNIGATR

Row | SMILES | EC50 [1, 3] [µM] | Emax [1] [%] | M2 EC50 [2] | EC50 [2] [µM] | M2 % RE [2] [%] | activation at 10 µM ([2]; response at 10 μM compound, relative to an EC100 concentration of acetylcholine, read-out: M2 % RE @ 10 μM) [%] | M4 EC50 [1, 3]
1 | CCOC(=O)N1CCCC(N2CCC(c3cncc(N(C)C)n3)CC2)CC1 (stereo not shown) [Example 50, Ethyl 4-{4-[6-(dimethylamino)pyrazin-2-yl]piperidin-1-yl}azepane-1-carboxylate] | 0.46 | 50 | No Response |  |  |  | 
2 | CCOC(=O)N1CCCC(N2CCC(c3cncc(OC)c3)CC2)CC1 (stereo not shown) [Example 45, Ethyl 4-[4-(5-methoxypyridin-3-yl)piperidin-1-yl]azepane-1-carboxylate] | 0.46 | 25 | No Response |  |  |  | 
3 | CCOC(=O)N1CCCC(N2CCC(c3cc(-c4cccs4)n[nH]3)CC2)CC1 (stereo not shown) [Example 17, Ethyl 4-{4-[3-(thiophen-2-yl)-1H-pyrazol-5-yl]piperidin-1-yl}azepane-1-carboxylate] | 0.81 | 50 | No Response |  |  |  | 
4 | CCOC(=O)N1CCCC(N2CCC(c3cccn(C)c3=O)CC2)CC1 (stereo not shown) [Example 39, Ethyl 4-[4-(1-methyl-2-oxo-1,2-dihydropyridin-3-yl)piperidin-1-yl]azepane-1-carboxylate] | 0.74 | 41 | No Response |  |  |  | 
5 | CCOC(=O)N1CCC(N2CCC(c3nccs3)CC2)CC1 [Example 68, Ethyl 4-[4-(1,3-thiazol-2-yl)piperidin-1-yl]piperidine-1-carboxylate] | 0.54 | 45 | No Response |  |  |  | 
6 | CCOC(=O)N1CCCC(N2CCC(OC)(c3nccn3C)CC2)CC1 (stereo not shown) [Example 13, Ethyl 4-[4-methoxy-4-(1-methyl-1H-imidazol-2-yl)piperidin-1-yl]azepane-1-carboxylate] | 2.88 | 24 | No Response |  |  |  | 
7 | COC(=O)N1CCC(CN2CCC(n3nc(C)cc3C)C2)CC1 (stereo not shown) [Example 78, Methyl 4-{[3-(3,5-dimethyl-1H-pyrazol-1-yl)pyrrolidin-1-yl]methyl}piperidine-1-carboxylate] | 2.68 | 36 | No Response |  |  |  | 
8 | CCOC(=O)N1CCCC(N2CCC(c3nc(C)cnc3C)CC2)CC1 (stereo not shown) [Example 59, Ethyl 4-[4-(3,6-dimethylpyrazin-2-yl)piperidin-1-yl]azepane-1-carboxylate] | 0.53 | 30 | No Response |  |  |  | 
9 | CCOC(=O)N1CCC[C@H](N2CCC(c3nccn3C)CC2)CC1 [Example 83, Ethyl (4S)-4-[4-(1-methyl-1H-imidazol-2-yl)piperidin-1-yl]azepane-1-carboxylate] | 1.5 | 55 | No response |  |  |  | 
10 | CCOC(=O)N1CCC(N2CCC(c3ccnc(C)n3)CC2)CC1 [Example 36, Ethyl 4-[4-(2-methylpyrimidin-4-yl)piperidin-1-yl]piperidine-1-carboxylate] | 6.73 | 25 | No Response |  |  |  | 
11 | CCOC(=O)N1CCCC(N2CCC(c3cncnc3OC)CC2)CC1 (stereo not shown) [Example 51, Ethyl 4-[4-(4-methoxypyrimidin-5-yl)piperidin-1-yl]azepane-1-carboxylate] | 0.31 | 69 | No Response |  |  |  | 
12 | CCOC(=O)N1CCCC(N2CCC(c3ncccn3)CC2)CC1 (stereo not shown) [Example 74, Ethyl 4-[4-(pyrimidin-2-yl)piperidin-1-yl]azepane-1-carboxylate] | 1.05 | 61 |  | > 10 |  | 20 | 
13 | CCOC(=O)N1CCCC(N2CCC(c3cccnc3CC(C)C)CC2)CC1 (stereo not shown) [Example 77, Ethyl 4-{4-[2-(2-methylpropyl)pyridin-3-yl]piperidin-1-yl}azepane-1-carboxylate] | 0.67 | 58 | No Response |  |  |  | 
14 | CCOC(=O)N1CCC[C@@H](N2CCC(c3nccn3C)CC2)CC1 [Example 84, Ethyl (4R)-4-[4-(1-methyl-1H-imidazol-2-yl)piperidin-1-yl]azepane-1-carboxylate] |  |  |  |  |  |  | No response
15 | CCOC(=O)N1CCC[C@@H](N2CCC(n3cccn3)CC2)CC1 [Example 82, Ethyl (4R)-4-[4-(1H-pyrazol-1-yl)piperidin-1-yl]azepane-1-carboxylate] | 0.46 | 80 |  |  |  |  | 

Continued, values first:

Row | EC50 [1, 3] [µM] | Emax [1] [%] | M2 EC50 [2] | EC50 [2] [µM] | M2 % RE [2] [%] | activation at 10 µM ([2]; response at 10 μM compound, relative to an EC100 concentration of acetylcholine, read-out: M2 % RE @ 10 μM) [%] | M4 EC50 [1, 3] | SMILES
16 | 0.2 | 68 |  | 0.68 | 38 |  |  | CCOC(=O)N1CCCC(N2CCC(n3nccc3-c3cnn(C(C)C)c3)CC2)CC1 (stereo not shown) [Example 22, Ethyl 4-(4-{5-[1-(propan-2-yl)-1H-pyrazol-4-yl]-1H-pyrazol-1-yl}piperidin-1-yl)azepane-1-carboxylate]
17 | 0.14 | 62 | No Response |  |  |  |  | CCOC(=O)N1CCCC(N2CCC(c3nccnc3OC)CC2)CC1 (stereo not shown) [Example 40, Ethyl 4-[4-(3-methoxypyrazin-2-yl)piperidin-1-yl]azepane-1-carboxylate]
18 | 0.27 | 63 |  | 2.02 | 20 |  |  | CCOC(=O)N1CCC(N2CCC(c3cccc(OCC)n3)CC2)CC1 [Example 72, Ethyl 4-[4-(6-ethoxypyridin-2-yl)piperidin-1-yl]piperidine-1-carboxylate]
19 | 0.18 | 68 | No Response |  |  |  |  | CCOC(=O)N1CCCC(N2CCC(c3nc(C(F)(F)F)ncc3OC)CC2)CC1 (stereo not shown) [Example 60, Ethyl 4-{4-[5-methoxy-2-(trifluoromethyl)pyrimidin-4-yl]piperidin-1-yl}azepane-1-carboxylate]
20 | 0.02 | 94 | No Response |  |  |  |  | CCOC(=O)N1CCCC(N2CCC(c3cccnc3OCc3cc(C)no3)CC2)CC1 (stereo not shown) [Example 54, Ethyl 4-(4-{2-[(3-methyl-1,2-oxazol-5-yl)methoxy]pyridin-3-yl}piperidin-1-yl)azepane-1-carboxylate]
21 | 0.21 | 53 | No Response |  |  |  |  | CCOC(=O)N1CCCC(N2CCC(c3nccnc3N(C)C)CC2)CC1 (stereo not shown) [Example 49, Ethyl 4-{4-[3-(dimethylamino)pyrazin-2-yl]piperidin-1-yl}azepane-1-carboxylate]
22 | 0.27 | 46 | No Response |  |  |  |  | CCOC(=O)N1CCCC(N2CCC(n3nccc3-c3sc(C)nc3C)CC2)CC1 (stereo not shown) [Example 25, Ethyl 4-{4-[5-(dimethyl-1,3-thiazol-5-yl)-1H-pyrazol-1-yl]piperidin-1-yl}azepane-1-carboxylate]
23 | 0.06 | 80 | No Response |  |  |  |  | CCOC(=O)N1CCCC(N2CCC(c3cccnc3OCC)CC2)CC1 (stereo not shown) [Example 53, Ethyl 4-[4-(2-ethoxypyridin-3-yl)piperidin-1-yl]azepane-1-carboxylate]
24 | 0.14 | 74 | No Response |  |  |  |  | CCOC(=O)N1CCCC(N2CCC(n3cccn3)CC2)CC1 (stereo not shown) [Example 4, Ethyl 4-[4-(1H-pyrazol-1-yl)piperidin-1yl]azepane-1-carboxylate]
25 | 0.02 | 94 |  | 0.18 | 62 |  |  | CCOC(=O)N1CCCC(N2CCC(c3cc(C(F)(F)F)cnc3OC)CC2)CC1 (stereo not shown) [Example 43, Ethyl 4-{4-[2-methoxy-5-(trifluoromethyl)pyridin-3-yl]piperidin-1-yl}azepane-1-carboxylate]

Source: patent publication US10030012B2, “Piperidin-1-yl and azepin-1-yl carboxylates as muscarinic M4 receptor agonists” (Heptares Therapeutics Limited, priority 2013, dated 2018)
